Laboratory results: the NIST ThermoML archive (doi:10.1016/j.fluid.2004.10.028)

Assay: wn = mass fraction of the nth substance listed
Details: Liquid, Capillary tube (Ostwald / Ubbelohde) method

O=S(=O)([O-])[O-].[Na+].[Na+] [sodium sulfate] + O
viscosity [mPa·s]
Details | 10000 kPa | 20000 kPa | 30000 kPa | 40000 kPa
421.5 K, w1 = 0.03 | 0.2013 | 0.2035 | 0.2068 | 0.209
422.51 K, w1 = 0.23 | 0.4132 | 0.4195 | 0.4254 | 0.43
422.61 K, w1 = 0.015 | 0.1927 | 0.1968 | 0.1999 | 0.2022
423.8 K, w1 = 0.26 | 0.4623 | 0.4688 | 0.4726 | 0.4803
424.67 K, w1 = 0.05 | 0.2079 | 0.2096 | 0.213 | 0.2164
425.6 K, w1 = 0.07 | 0.2211 | 0.2267 | 0.2293 | 0.23
444.81 K, w1 = 0.2 | 0.3083 | 0.3129 | 0.3175 | 0.3219
446.24 K, w1 = 0.05 | 0.1796 | 0.182 | 0.1853 | 0.1879
447 K, w1 = 0.07 | 0.1913 | 0.1946 | 0.1975 | 0.1998
447.2 K, w1 = 0.1 | 0.2125 | 0.2163 | 0.2189 | 0.2219
447.6 K, w1 = 0.015 | 0.1633 | 0.1684 | 0.17 | 0.1724
447.6 K, w1 = 0.15 | 0.2493 | 0.2551 | 0.2575 | 0.2603
447.6 K, w1 = 0.26 | 0.3901 | 0.3981 | 0.401 | 0.4047
447.81 K, w1 = 0.03 | 0.1686 | 0.1705 | 0.1734 | 0.1761
447.9 K, w1 = 0.23 | 0.3449 | 0.3498 | 0.3568 | 0.3609
470.16 K, w1 = 0.05 | 0.1564 | 0.1598 | 0.1629 | 0.1647
470.7 K, w1 = 0.015 | 0.1432 | 0.1468 | 0.1499 | 0.1508
471.31 K, w1 = 0.1 | 0.1847 | 0.1878 | 0.1904 | 0.1941
472 K, w1 = 0.23 | 0.2966 | 0.3024 | 0.3086 | 0.312
472.2 K, w1 = 0.07 | 0.1656 | 0.1689 | 0.1706 | 0.1739
472.3 K, w1 = 0.2 | 0.2608 | 0.2661 | 0.2699 | 0.2739
473.7 K, w1 = 0.03 | 0.1456 | 0.1486 | 0.1514 | 0.153
473.9 K, w1 = 0.26 | 0.3308 | 0.3354 | 0.3413 | 0.3476
473.93 K, w1 = 0.15 | 0.2133 | 0.2169 | 0.2199 | 0.224
496.34 K, w1 = 0.23 | 0.262 | 0.2695 | 0.2734 | 0.2776
497.1 K, w1 = 0.03 | 0.1296 | 0.1312 | 0.136 | 0.1375
497.19 K, w1 = 0.2 | 0.2292 | 0.2335 | 0.2387 | 0.2425
497.8 K, w1 = 0.15 | 0.1892 | 0.1945 | 0.1978 | 0.2001
498.22 K, w1 = 0.1 | 0.1618 | 0.1641 | 0.1678 | 0.1711
498.3 K, w1 = 0.015 | 0.1248 | 0.1286 | 0.1307 | 0.1325
498.7 K, w1 = 0.07 | 0.1451 | 0.1489 | 0.1506 | 0.1533
498.7 K, w1 = 0.26 | 0.2923 | 0.2976 | 0.3018 | 0.309
499.3 K, w1 = 0.05 | 0.1352 | 0.1363 | 0.1392 | 0.143
520.5 K, w1 = 0.26 | 0.2636 | 0.2691 | 0.2746 | 0.2813
520.51 K, w1 = 0.23 | 0.2338 | 0.2387 | 0.2415 | 0.249
520.64 K, w1 = 0.015 | 0.1128 | 0.1165 | 0.1191 | 0.1209
522.4 K, w1 = 0.15 | 0.1686 | 0.1709 | 0.1748 | 0.179
523.1 K, w1 = 0.07 | 0.1298 | 0.1324 | 0.1367 | 0.1385
523.3 K, w1 = 0.03 | 0.115 | 0.1169 | 0.1196 | 0.1219
523.8 K, w1 = 0.2 | 0.2021 | 0.2076 | 0.2105 | 0.216
524.7 K, w1 = 0.05 | 0.1204 | 0.1231 | 0.1267 | 0.1286
525.4 K, w1 = 0.1 | 0.143 | 0.1469 | 0.1493 | 0.1524
545.3 K, w1 = 0.05 | 0.1097 | 0.112 | 0.1143 | 0.1177
545.4 K, w1 = 0.2 | 0.184 | 0.1879 | 0.1923 | 0.1989
546.2 K, w1 = 0.07 | 0.1171 | 0.1197 | 0.1224 | 0.1267
547.7 K, w1 = 0.15 | 0.151 | 0.1548 | 0.1589 | 0.1634
547.9 K, w1 = 0.015 | 0.1 | 0.1025 | 0.1068 | 0.1089
547.9 K, w1 = 0.1 | 0.1296 | 0.1329 | 0.136 | 0.1399
548.7 K, w1 = 0.23 | 0.2061 | 0.2106 | 0.2186 | 0.223
549.9 K, w1 = 0.03 | 0.1023 | 0.1065 | 0.1086 | 0.1109
570.5 K, w1 = 0.15 | 0.1354 | 0.1399 | 0.1463 | 0.1496
572.62 K, w1 = 0.03 | 0.092 | 0.0967 | 0.0992 | 0.102
572.96 K, w1 = 0.05 | 0.0965 | 0.0998 | 0.1029 | 0.1066
573.2 K, w1 = 0.1 | 0.1143 | 0.1178 | 0.1204 | 0.1266
573.5 K, w1 = 0.07 | 0.1031 | 0.1068 | 0.1092 | 0.1143
